# Like-named read-outs stand apart in the source and are kept apart here.
# Key:
# [1] = test system: H9 cells; assay: Dye-mediated light kill of H9 cells (trypan blue); format: cell-based; settings: Homo sapiens, 10% FCS medium, read-out: Percent Viability
# Method: Photoinduced killing of H9 cells with Compound 1b as the mediator of photochemical toxicity were carried out according to the following protocol:
# Compound 1b was added to the H9 cells (5×10^5 /ml) in medium or 100% human plasma to give dye concentrations of 0, 25 and 100 μM (1 control, 2 duplicates of both non-azo dye samples). Two 2-ml aliquots of each of the duplicated dye samples was irradiated with 10J/cm^2 total energy of 450±35 nm wavelength light in a sealed 3-ml test tube. Immediately after irradiation, the cells were centrifuged at 450×g for 10 minutes, and the pellets resuspended in the original volume of fresh RPMI-1640+10% FCS+gentamycin. The cell suspensions were transferred to a 12-well TC plate and placed in a 37° C. 5% CO2 incubator. Cell viability counts (trypan blue) were carried out at 4, 24, 48, and 72 hours post irradiation. The results of these experiments are summarized in Tables 7 (medium) and 8 (100% human plasma).
# Photoinduced killing of H9 cells with Compound VII as the mediator of photochemical toxicity were carried out in 10% FCS medium according to the same general protocol using concentrations of the dye at 0, 5, 25 and 100 μM., and irradiating at 420±5 nm at 10J/cm^2 total energy.
# [2] = test system: Vero cells; assay: Cellular toxicity in Vero cells (viral-medium suspension samples); format: cell-based
# Method: (§1) Each sample including the stock virus were assayed on Vero cells for PFU/ml of HSV-1. The assay consisted of growing Vero cells in minimal essential medium with Hanks balanced salt solution supplemented with 10% fetal bovine serum, L-glutamine and antibiotics. Hepes buffer (2%) was added for growth in open plates (twelve well microplates from CO-star). Ten fold dilutions of each sample were prepared and 0.1 ml of the appropriate dilution for each individual sample was adsorbed at 37° C. for 1.5 hr. on a cell monolayer from which the growth medium had been removed. After the adsorption period, the cell monolayer was washed and an overlay consisting of equal volumes of 2X strength L-15 medium and 2% methylcellulose was added. Following an appropriate incubation time at 37° C. (about 4 days), the overlay medium was removed. Monolayers were fixed with methanol and stained with giemsa to elaborate the presence of plaques. The plaques were counted using a dissecting microscope at a magnification of 20X.
# as §1, with “Co-star).” for “CO-star).”
# [3] = Bleaching and recovery of fluorescence in aqueous suspension of Cremophor EL; format: physicochemical
# Method: A 14.9 millimolar stock solution of Ed6Br in Cremophor EL was used to make 3 ml of a micellar Cremophor suspension having a concentration averaged over the entire sample volume of […]. A […] aliquot was removed and diluted with 2.9 ml of distilled water for measurement of fluorescence using an SLM 500C spectrofluorometer (excitation, 420 nm, emission, 520 nm). The 3 ml sample was divided into two 1.5 ml aliquots placed in quartz crusetts. One sample was irradiated with stirring with 420 # 5 nm filtered light from a xenon arc lamp with an irradiance of 20 mW/cm^2 and with the companion sample wrapped in aluminum foil (dark control) and maintained alongside of the irradiated sample. […] After the entire light treatment, both the illuminated and dark control samples were divided into two equal aliquots and held pairwise (dark+previously illuminated) at 4° C. and 20° C. in the absence of light. Aliquots of […] were taken from each sample after 18 and 43 hr and their fluorescence emission values determined using the SLM 500C instrument immediately after sampling.
# In an experiment eventually following the protocol described immediately above in Part I (for Ed6Br), the light-induced bleaching of DiEd6Br with 200 J/cm^2 light exposure and recovery of its fluorescence upon standing in the dark at 22° C. were determined.
# [4] = Cell viability in absence of light (trypan blue exclusion); format: cell-based, human; settings: dark, 1 hour after
# Description: Following the protocol of (1), above, H9 cells were stained with Compound lb, and the technique of fluorescent microscopy was used to determine visually the sites of localization of dye fluorescence in living cells. Specifically, H9 cells were counted with a hemocytometer and diluted to 5×10^5 /ml. […] Cytospin slides of the cell suspensions were made and they were examined with the fluorescence microscope (Olympus AH-2) using B excitation plus a 460 nm interference excitation filter and a 495 nm emission filter. The cells were also counted with a hemocytometer and their viability determined (see below). […] The former may reflect the diffusional component of the dye incorporation, or may reflect binding in the ER membrane. The latter may indicate lysosomal localization of pinocytosed dye as occurs with Lucifer Yellow.
# Cell viability was determined using dye incorporated according to the protocol directly above. Viability was determined using a trypan blue dye exclusion test in which "live" cells with competent cell membranes exclude the dye. Table 5 summarizes the data obtained using cells exposed to Compound 1b in culture medium, and Table 6 summarizes data obtained using cells exposed to Compound VII.
# [5] = H9, light or radiation study, 4 h, hν 420±5 nm 10J/cm^2, 4 hours
smiles,measurement,setting,value
"CCCCCCNc1c(Br)cc2c3c(cccc13)C(=O)N(CCCCCC)C2=O [Compound VII, 3-bromo-4-(hexyl)amino-N-hexyl-1,8-naphthalimide]",viability at 5 µM,"[1]; H9, 4 h, no hν, 4 hours",86.5%
same,viability at 25 µM,"[1]; H9, 4 h, no hν, 4 hours (Table 9)",90%
same,viability at 5 µM,[1]; [5],0%
same,viability at 25 µM,[1]; [5],0%
same,viability at 100 µM,"[1]; H9, light or radiation study, 4 h, 100 μM, hν 420±5 nm 10J/cm^2, 4 hours, light reached only approximately 2 mm",1.8%
same,cellular toxicity,"[2]; Ed6Br, 8 concentrations, not irradiated",no evidence of cellular toxicity
same,cellular toxicity of not previously irradiated samples,"[2]; two concentrations, vs irradiated samples",significantly less cellular toxicity than the irradiated samples
same,% Un-irradiated Fluorescence,"[3]; 0 J/cm^2, Cremophor EL",100%
same,Fluorescence Recovery in Dark,"[3]; 0 hour, 4° C.",18.2%
same,Fluorescence Recovery in Dark,"[3]; 0 hour, 22° C.",18.2%
same,% Un-irradiated Fluorescence,"[3]; 10 J/cm^2, 420 nm, Cremophor EL",97.8%
same,% Un-irradiated Fluorescence,"[3]; 25 J/cm^2, 420 nm, Cremophor EL",96.2%
same,% Un-irradiated Fluorescence,"[3]; 50 J/cm^2, 420 nm, Cremophor EL",74.9%
same,% Un-irradiated Fluorescence,"[3]; 90 J/cm^2, 420 nm, Cremophor EL",48.7%
same,irradiation induced loss of fluorescent intensity,[3]; 200 J/cm^2,about 80%
same,% Un-irradiated Fluorescence,"[3]; 200 J/cm^2, 420 nm, Cremophor EL",18.2%
same,Fluorescence Recovery in Dark,"[3]; 18 hour, 4° C.",24.6%
same,Fluorescence Recovery in Dark,"[3]; 18 hour, 22° C.",39.4%
same,Fluorescence Recovery in Dark,"[3]; 43 hour, 4° C.",36.8%
same,Fluorescence Recovery in Dark,"[3]; 43 hour, 22° C.",56.7%
same,initially activated species permanently losing fluorescence,[3]; Cremophor EL,Approximately 50%
same,initially activated species recovering fluorescence,[3]; Cremophor EL,Approximately 50%
same,"ultimate fluorescent intensity regained, of initial",[3]; after 200 J/cm^2,approximately 40%
same,change of fluorescence emission intensity in absence of light,[3]; dark,lack of change of the value of fluorescence emission intensity
same,"viability at 4 h, 1 µM","[4]; 1 μM, 100% human plasma 4 hours",95.9%
same,"viability at 4 h, 5 µM","[4]; 5 μM, 100% human plasma 4 hours",94.7%
same,"viability at 4 h, 25 µM","[4]; 25 μM, 100% human plasma 4 hours",95.5%
same,"viability at 24 h, 1 µM","[4]; human, 1 μM, medium 24 hours",86.8%
same,"viability at 24 h, 10 µM","[4]; human, 10 μM, medium 24 hours",80%
same,"viability at 24 h, 25 µM","[4]; human, 25 μM, medium 24 hours",79.6%
same,"viability at 24 h, 50 µM","[4]; human, 50 μM, medium 24 hours",42.5%
